Experiments:
[1] = target: T1, MsrB1 (Mus musculus, UniProt Q9JLC3, U95C); test: NADPH consumption assay of MsrB1 activity; assay type: biochemical; settings: absorbance at 340 nm, 900 s vs 0 min; approximately 50 μM compound; DMSO control 0.638
T1 construct: made in house
T1 sequence (Q9JLC3 1-116 U95C): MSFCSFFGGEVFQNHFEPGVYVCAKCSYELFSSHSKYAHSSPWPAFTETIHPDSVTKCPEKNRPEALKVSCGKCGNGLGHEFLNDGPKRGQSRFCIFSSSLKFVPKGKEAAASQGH
Experimental: The activity of MsrB1 was assessed over a 900-s period in a 20 mM 4-(2-hydroxyethyl)-1-piperazineethanesulfonic acid (HEPES) buffer at pH 7.5 and 37 °C. The reaction mixture contained 500 μM N-AcMetO, 6 μM MsrB1, 2 μM mouse thioredoxin, 1 μM mouse thioredoxin reductase, 50 μM NADPH, and approximately 50 μM of a chemical compound. All components, except for the chemical compound, substrate (N-AcMetO), and NADPH, were pre-mixed. The chemical compound was added and incubated for 10 min. NADPH (50 μM) and 500 μM N-AcMetO were added before absorbance measurements began. The rate of NADPH oxidation was monitored by measuring absorbance at 340 nm every 30 s until the reaction was complete.

[2] = target: T2, Recombinant mouse MsrB1 protein (Mus musculus, UniProt Q9JLC3, U95C); test: Microscale thermophoresis (MST) binding assay; settings: read-out: KD ± SD
T2 construct: made in house; host or cells: E. coli (inferred; Rosetta2 (DE3) pLysS and pET-28a are described only for the RIYsense fusion)
T2 sequence (Q9JLC3 1-116 U95C): T1 sequence (Q9JLC3 1-116 U95C)
Experimental: MST analysis was performed using the Monolith NT.115 system (NanoTemper Technologies, München, Germany). Recombinant mouse MsrB1 protein was labeled with the Monolith His-Tag Labeling Kit RED-tris-NTA 2nd Generation (NanoTemper Technologies, Germany). The protein was prepared at a concentration of 200 nM, and the RED-tris-NTA 2nd Generation dye was diluted to 100 nM in the PBS-T (Tween 20) buffer. A mixture of 100 μL of 200 nM protein and 100 μL of 100 nM dye was incubated at RT for 30 min. After incubation, the sample was centrifuged at 13,000 rpm at 4 °C for 10 min, and the supernatant was transferred to a new tube, completing the protein labeling process and preparing the sample for analysis. Inhibitor compounds were serially diluted in DMSO, starting at a concentration of 1.25 mM (1:1 dilution, 16 points), and then each of the 16 dilutions was further diluted fivefold with PBS-T buffer. Next, 10 μL of the diluted compounds were mixed with 10 μL of the labeled protein, followed by resuspension and incubation for 10 min at RT. The samples were loaded into capillaries in serial order and analyzed using the Monolith NT.115 system at 60% LED power and 60% MST power. Changes in normalized fluorescence, dependent on the concentration of the compounds after 30 s of MST on time, were analyzed to determine Kd values.

[3] = target: T1, MsrB1; test: MsrB1 activity assay by HPLC with dabsylated MetO as substrate; assay type: biochemical; settings: dabsyl-MetO to dabsyl-Met
Experimental: Methionine sulfoxide reductase B1 activity was determined using dabsylated MetO as substrate. […] The reaction was conducted for 30 min at 37 °C in a water bath and stopped by adding 200 μL of acetonitrile and vortexing. The reaction product, dabsyl-Met, was analyzed by HPLC using a ZORBAX RX-C18 column (5 μm; 4.6 × 150 mm). The column was pre-equilibrated with 0.14 M sodium acetate (pH 6.1), 0.5 mL/L triethylamine, and 30% acetonitrile. A total of 50 μL of the sample was loaded onto the column. The flow rate was 1 mL·min^−1, and a linear gradient elution mode was used (30% to 70%). Dabsyl-Met was detected via absorbance at 436 nm.

[4] = test system: bone marrow-derived macrophages (BMDMs); test: Cytokine mRNA expression in LPS-stimulated bone marrow-derived macrophages; assay type: cell-based, mouse; settings: WT BMDMs, 1 μM inhibitor, LPS stimulation 24 h
Experimental: Bone marrow-derived macrophages (BMDMs) were generated by culturing bone marrow cells isolated from 8-week-old male C57BL/6 mice and MsrB1 knockout (KO) mice. The cells were cultured in high-glucose Dulbecco’s Modified Eagle Medium (DMEM) (Cytiva, Marlborough, MA, USA) supplemented with 10% fetal bovine serum (FBS), 100 U·mL^−1 penicillin-streptomycin (Gibco, Waltham, MA, USA), 20 mM HEPES (Gibco, Waltham, MA, USA), and 50 ng·mL^−1 recombinant mouse macrophage colony-stimulating factor (M-CSF) (BioLegend, San Diego, CA, USA). On day 3, 10 mL of fresh medium containing 50 ng·mL^−1 M-CSF was added to the cultures. On day 5, cells were treated with 1 μM MsrB1 inhibitors. On day 6, cells were treated with LPS (BioLegend, San Diego, CA, USA) for 24 h. Following treatment, cells were harvested, and total RNA was extracted using the High-Capacity cDNA Reverse Transcription Kit (Applied Biosystems, Foster City, CA, USA). Gene expression of IL-10 and IL-1rn mRNA was analyzed using the QuantStudio 3 Real-Time PCR system.

[5] = test system: C57BL/6 mice; test: TPA-induced acute skin inflammation (ear edema) model; assay type: in vivo, mouse; settings: WT mice, 0.5 μM inhibitor in drinking water for 21 days, topical TPA
Experimental: Six-week-old male wild-type (WT) C57BL/6 mice and MsrB1 knockout (KO) mice were used in this experiment. The mice were provided with 50 mL water containing either 0.5 μM MsrB1 inhibitors dissolved in 1% DMSO or 1% DMSO alone (control) for 21 days. After this period, 50 μg·mL^−1 of TPA was applied to the right ear of each mouse, while the left ear received acetone as a control. Twenty hours after the initial TPA application, a second dose was administered. The mice were then sacrificed, and ear tissue samples were collected. The tissues were fixed in 10% formalin, dehydrated, embedded in paraffin, and sectioned into slices 3–5 μm thick. The sections were deparaffinized, rehydrated, and stained with hematoxylin and eosin (H&E) for histological examination under microscopy.

`CCc1ccc(C2=NN(c3ccc(S(N)(=O)=O)cc3)C(c3ccc(O)cc3)C2)cc1` (centres unmarked) [A06, 4-[5-(4-ethylphenyl)-3-(4-hydroxyphenyl)-3,4-dihydropyrazol-2-yl]benzenesulfonamide] was tested, and the “NADPH (Abs15min/Abs0min)” value [1] was 0.942, the Kd [2] was 28.3 ± 1.21 nM and the “Relative enzyme activity of MsrB1” value ([3]; 10 µM compound) was “no inhibition was observed”. The “Relative enzyme activity of MsrB1” value ([3]; 100 µM and 500 µM compound) was “decreased in a concentration-dependent manner”, the “IL-1rn mRNA expression” value [4] was “reduced” and the “IL-10 mRNA expression” value [4] was “significantly reduced”. The “Dermal area of TPA-treated auricle (H&E) compared to wild-type control mice” value [5] was “substantially more enlarged”.

For `CCc1ccc(-n2c3nc(=O)[nH]c(=O)c-3cc3c(Cl)cccc32)cc1` [B03, 6-chloro-10-(4-ethylphenyl)pyrimido[4,5-b]quinoline-2,4-dione], the “NADPH (Abs15min/Abs0min)” value [1] was 0.918, the Kd [2] was 97.1 ± 1.6 nM and the “Relative enzyme activity of MsrB1” value ([3]; 10 µM compound) was “no inhibition was observed”. For the same compound, the “Relative enzyme activity of MsrB1” value ([3]; 100 µM and 500 µM compound) was “decreased in a concentration-dependent manner”, the “IL-1rn mRNA expression” value [4] was “reduced” and the “IL-10 mRNA expression” value [4] was “significantly reduced”. For the same compound, the “Dermal area of TPA-treated auricle (H&E) compared to wild-type control mice” value [5] was “substantially more enlarged”.

From publication PMC11591284, “Development and Optimization of a Redox Enzyme-Based Fluorescence Biosensor for the Identification of MsrB1 Inhibitors” (Antioxidants, 2024)
